Patent US7932272B2, “Antifungal agent containing heterocyclic compound” (Eisai R&D Management Co., Ltd., priority 2003, dated 2011)
In brackets after ≈: the same amount, converted by molar mass.

Legend:
[1] = tested on: C. albicans E81022 strain; assay: Anti-Candida activity (MIC measurement); type: cell-based; settings: E81022STRAIN, MIC by visual inspection, C. albicans E81022, 48 hours at 30 to 35° C.
Protocol: (§1) For the C. albicans E81022 strain, a fungal suspension from a standing culture for 48 hours at 30° C. in a Sabouraud dextrose liquid culture medium (SDB) was diluted 10,000-fold with a 1.3-fold concentrated SDB to adjust to a fungal suspension of 1 to 2×10^4 cells/ml. For the A. fumigatus Tsukuba strain, −80° C. stored strain was diluted 1,000-fold with a 1.3-fold concentrated SDB to adjust to a fungal suspension of 2 to 3×10^3 cells/ml.
(§2) Using a U-bottomed 96 well plate, 8 samples/plate (A to H) of sample dilution solutions were prepared. On the 3rd row of each plate was dispensed 240 μl of sterilized and distilled water, and on the 2nd and 4th to 12th rows were dispensed 125 μl of 4% dimethylsulfoxide solution. Weighed sample was dissolved in dimethylsulfoxide to prepare a 2.5 to 20 mg/ml solution, 10 μl of this solution was then added to the 3rd row of the prepared plate, and 10 steps of two-fold step dilutions (125 μl of solution+125 μl of 4% dimethylsulfoxide) were performed on the plate.
(§3) The fungal suspension preprared in (1) was used in the amount of 75 μl/well to inoculate a V-bottomed or flat-bottomed 96 well plate containing 25 μl/well of test compound dilution solution prepared in (2), and a standing culture was carried out aerobically for 48 hours at 30 to 35° C.

[2] = tested on: A. fumigatus Tsukuba strain; assay: Anti-Aspergillus activity (MIC measurement); type: cell-based; settings: MIC by visual inspection, 48 hours at 30 to 35° C.
Protocol: as §1, §2, §3

Compound | MIC [1] [µg/mL] | MIC [2] [µg/mL]
Nc1ncccc1C(=O)NCc1ccc(Cc2ccccc2)o1 [Example A-5, 2-Amino-N-(5-benzyl-furan-2-ylmethyl)-nicotinamide] | 0.2 (≈ 0.651 µM) | 0.78 (≈ 2.54 µM)
Nc1ncccc1C(=O)NCc1ccc(CCNc2ccccc2)o1 [Example A-8, 2-Amino-N-(5-(2-phenylamino-ethyl)-furan-2-ylmethyl)-nicotinamide] | 3.13 (≈ 9.3 µM) | 6.25 (≈ 18.6 µM)
Nc1ncccc1C(=S)NCc1ccc(OCc2ccccc2)cc1 [Example A-22, 2-Amino-N-(4-benzyloxy-benzyl)-thionicotinamide] | 0.78 (≈ 2.23 µM) | 3.13 (≈ 8.96 µM)
Cc1ccc(C(=O)NCc2ccc(OCc3ccccc3)cc2)c(N)n1 [Example A-37, 2-Amino-N-(4-benzyloxy-benzyl)-6-methyl-nicotinamide] | 0.39 (≈ 1.12 µM) | 3.13 (≈ 9.01 µM)
Nc1ccc(C(=O)NCc2ccc(OCc3ccccc3)cc2)cn1 [Example A-39, 6-Amino-N-(4-benzyloxybenzyl)-nicotinamide] | 1.56 (≈ 4.68 µM) | 1.56 (≈ 4.68 µM)
Nc1nc(NCCCn2nccn2)ccc1C(=O)NCc1ccc(Oc2ccccc2)s1 [Example A-81, 2-Amino-N-(5-phenoxy-thiophen-2-ylmethyl)-6-(3-[1,2,3]-triazol-2-yl-propylamino)-nicotinamide] | 3.13 (≈ 6.96 µM) | 6.25 (≈ 13.9 µM)
Nc1nc(NCc2ccco2)ccc1C(=O)NCc1ccc(Oc2ccccc2)s1 [Example A-82, 2-Amino-6-(furfurylamino)-N-(5-phenoxy-thiophen-2-ylmethyl)-nicotinamide] | 0.2 (≈ 0.476 µM) | 1.56 (≈ 3.71 µM)
Nc1ccc(NCCNc2ccc(C(=O)NCc3ccc(Oc4ccccc4)s3)c(N)n2)cc1 [Example A-92, 2-Amino(2-(4-amino-phenylamine)-ethylamino)-N-(5-phenoxy-thiophen-2-ylmethyl)-nicotinamide] | 3.13 (≈ 6.6 µM) | 
CC(=O)c1ccc(C(=O)NCc2ccc(Oc3ccccc3)s2)c(N)n1 [Example A-98, 6-Acetyl-2-amino-N-(5-phenoxy-thiophen-2-ylmethyl)-nicotinamide] | 0.39 (≈ 1.06 µM) | 1.56 (≈ 4.25 µM)
Nc1nc(NCC(=O)O)ccc1C(=O)NCc1ccc(Oc2ccccc2)s1 [Example A-99, (6-Amino-5-((5-phenoxy-thiophen-2-ylmethyl)-carbamoyl)-pyridin-2-ylamino)-acetic acid] | 3.13 (≈ 7.86 µM) | 6.25 (≈ 15.7 µM)
Nc1nc(Cl)ccc1C(=O)NCc1ccc(Oc2ccccc2)s1 [Example A-101, 2-Amino-6-chloro-N-(5-phenoxy-thiophen-2-ylmethyl)-nicotinamide] | 0.1 (≈ 0.278 µM) | 0.39 (≈ 1.08 µM)
Nc1nc(OCCO)ccc1C(=O)NCc1ccc(Oc2ccccc2)s1 [Example A-112, 2-Amino-6-(2-hydroxyethoxy)-N-(5-phenoxy-thiophen-2-ylmethyl)-nicotinamide] | 3.13 (≈ 8.12 µM) | 6.25 (≈ 16.2 µM)
COc1ccc(C(=O)NCc2ccc(Oc3ccccc3)s2)c(N)n1 [Example A-116, 2-Amino-6-methoxy-N-(5-phenoxy-thiophen-2-ylmethyl)-nicotinamide] | 0.39 (≈ 1.1 µM) | 3.13 (≈ 8.81 µM)
COCCCc1ccc(C(=O)NCc2ccc(Oc3ccccc3)s2)c(N)n1 [Example A-124, 2-Amino-6-(3-methoxy-propyl)-N-(5-phenoxy-thiophen-2-ylmethyl)-nicotinamide] | 1.56 (≈ 3.92 µM) | 
Nc1nc(NCc2ccccc2)ccc1C(=O)NCc1ccc(Oc2ccccc2)s1 [Example A-126, 2-Amino-6-benzylamino-N-(5-phenoxy-thiophen-2-ylmethyl)-nicotinamide] | 0.78 (≈ 1.81 µM) | 6.25 (≈ 14.5 µM)
O=C(O)CCNc1ncccc1C(=O)NCc1ccc(Oc2ccccc2)s1 [Example A-131] | 1.56 (≈ 3.92 µM) | 6.25 (≈ 15.7 µM)
CNc1ncccc1C(=O)NCc1ccc(Oc2ccccc2)s1 [Example A-136, 2-Methylamino-N-(5-phenoxy-thiophen-2-ylmethyl)-nicotinamide] | 1.56 (≈ 4.6 µM) | 
Nc1ccc(C(=O)NCc2ccc(Oc3ccc(F)cc3)s2)cn1 [Example A-139, 6-Amino-N-(5-(4fluoro-phenoxy)-thiophen-2-ylmethyl)-nicotinamide] | 1.56 (≈ 4.54 µM) | 1.56 (≈ 4.54 µM)
Cc1sc(CNC(=O)c2cccnc2N)cc1Oc1ccccc1 [Example A-170, 2-Amino-N-(5-methyl-4-phenoxy-thiophen-2-ylmethyl)-nicotinamide] | 0.78 (≈ 2.3 µM) | 
Nc1ncccc1C(=O)NCc1cc(Cl)c(Oc2ccccc2)s1 [Example A-171, 2-Amino-N-(4-chloro-5-phenoxy-thiophen-2-ylmethyl)-nicotinamide] | 0.2 (≈ 0.556 µM) | 1.56 (≈ 4.34 µM)
Nc1ncncc1C(=O)NCc1ccc(Oc2ccccc2)s1 [Example B-1, 4-Amino-pyrimidine-5-carboxylic acid (5-phenoxy-thiophen-2-ylmethyl)-amide] | 3.13 (≈ 9.59 µM) | 6.25 (≈ 19.1 µM)

The next lines start with the values.

MIC [1] [µg/mL] | MIC [2] [µg/mL] | Compound
0.1 (≈ 0.274 µM) |  | Nc1nc2c(cc1C(=O)NCc1ccc(Oc3ccccc3)s1)CCC2 [Example C-1]
0.78 (≈ 2.11 µM) | 0.78 (≈ 2.11 µM) | O=C(NCc1ccc(OCc2ccccc2)cc1)c1ccc2ncccc2n1 [Example D-2, [1.5]Naphthylidine-2-carboxylic acid 4-benzyloxybenzylamide]
0.2 (≈ 0.543 µM) | 0.2 (≈ 0.543 µM) | O=C(NCc1ccc(OCc2ccccc2)cc1)c1ccc2ncccc2c1 [Example E-8, quinoline-6-carboxylic acid 4-benzyloxybenzylamide]
0.39 (≈ 1.1 µM) | 1.56 (≈ 4.4 µM) | O=C(NCc1cccc(Oc2ccccc2)c1)c1ccc2ncccc2c1 [Example E-11, Quinoline-6-carboxylic acid 3-phenoxybenzylamide]
0.78 (≈ 2.3 µM) | 1.56 (≈ 4.61 µM) | O=C(NCc1cccc(-c2ccccc2)c1)c1ccc2ncccc2c1 [Example E-13, Quinoline-6-carboxylic acid (biphenyl-3-ylmethyl)-amide]
0.78 (≈ 2.2 µM) | 1.56 (≈ 4.4 µM) | O=C(Cc1cccc(Oc2ccccc2)c1)Nc1ccc2ncccc2c1 [Example E-19, 2-(3-Phenoxy-phenyl)-N-quinolin-6-yl-acetamide]
1.56 (≈ 4.41 µM) |  | O=C(NCc1ccc(Nc2ccccc2)cc1)c1ccc2ncccc2c1 [Example E-25, Quinoline-6-carboxylic acid 4-phenylamino-benzylamide]
0.39 (≈ 1.17 µM) |  | O=C(NCc1cccc(OCC2CC2)c1)c1ccc2ncccc2c1 [Example E-43, Quinoline-6-carboxylic acid 3-cyclopropylmethoxy-benzylamide]
3.13 (≈ 7.87 µM) |  | CO/N=C(\NCc1ccc(OCc2ccccc2)cc1)c1ccc2ncccc2c1 [Example E-44, N-(4-Benzyloxy-benzyl)-N′-methoxy-quinoline-6-carboxamidine]
3.13 (≈ 7.98 µM) | 3.13 (≈ 7.98 µM) | N#C/N=C(\NCc1ccc(OCc2ccccc2)cc1)c1ccc2ncccc2c1 [Example E-45, N-(4-Benzyloxy-benzyl)-N′-cyano-quinoline-6-carboxamidine]
3.13 (≈ 8.81 µM) |  | O=C(NCc1cccc(Oc2ccccc2)c1)c1ccc2nnccc2c1 [Example F-1, Cinnoline-6-carboxylic acid 3-phenoxy-benzylamide]
6.25 (≈ 17.6 µM) |  | O=C(NCc1cccc(Oc2ccccc2)c1)c1ccc2cnccc2c1 [Example G-1, Isoquinoline-6-carboxylic acid 3-phenoxybenzylamide]
 | 6.25 (≈ 18.3 µM) | O=C(NCc1cccc(Oc2ccccc2)c1)c1ccc2[nH]ccc2c1 [Example V-1, 1H-Indole-5-carboxylic acid 3-phenoxybenzylamide]
